Key:
Experiment in all cases: radiometric filter-binding kinase assay
[1] = target: ERBB4 (human) (UniProt Q15303)
[2] = target: MKNK1 (human) (UniProt Q9BUB5)
[3] = target: HIPK3 (human) (UniProt Q9H422)
[4] = target: EPHA4 (human) (UniProt P54764)
[5] = target: MARK2 (human) (UniProt Q7KZI7)
[6] = target: INSRR (human) (UniProt P14616)
[7] = target: NEK6 (human) (UniProt Q9HC98)
[8] = target: BRSK1 (human) (UniProt Q8TDC3)
[9] = target: MAPK15 (human) (UniProt Q8TD08)
[10] = target: INSR (human) (UniProt P06213)
[11] = target: MAP2K1 (human) (UniProt Q02750)
[12] = target: MAPKAPK2 (human) (UniProt P49137)
[13] = target: MST4 (human) (UniProt Q9P289)
[14] = target: RIPK2 (human) (UniProt O43353)
[15] = target: CSK (human) (UniProt P41240)
[16] = target: JAK2 JH1 JH2 (human) (UniProt O60674)
[17] = target: PRKACA (human) (UniProt P17612)
[18] = target: PAK7 (human) (UniProt Q9P286)
[19] = target: NUAK1 (human) (UniProt O60285)
[20] = target: DYRK2 (human) (UniProt Q92630)
[21] = target: PRKCA (human) (UniProt P17252)
[22] = target: MINK1 (human) (UniProt Q8N4C8)
[23] = target: NEK2 (human) (UniProt P51955)
[24] = target: CAMKK2 (human) (UniProt Q96RR4)
[25] = target: SRPK1 (human) (UniProt Q96SB4)
[26] = target: RPS6KA5 KD1 KD2 (human) (UniProt O75582)
[27] = tested on: LCK (mouse); details: accession and sequence are those of the human protein
[28] = target: EPHA2 (human) (UniProt P29317)
[29] = target: EPHB2 (human) (UniProt P29323)
[30] = target: CDK2 CCNA2 (human) (UniProt P20248+P24941)
[31] = target: MARK1 (human) (UniProt Q9P0L2)
[32] = target: CaMK1 (human) (UniProt Q14012)
[33] = target: PHKG1 (human) (UniProt Q16816)
[34] = target: BTK (human) (UniProt Q06187)
[35] = tested on: PRKAA1 or PRKAA2 (rat); details: accession and sequence are those of the human protein

Sequence of EPHA4 (human) (P54764 whole entry, looked up): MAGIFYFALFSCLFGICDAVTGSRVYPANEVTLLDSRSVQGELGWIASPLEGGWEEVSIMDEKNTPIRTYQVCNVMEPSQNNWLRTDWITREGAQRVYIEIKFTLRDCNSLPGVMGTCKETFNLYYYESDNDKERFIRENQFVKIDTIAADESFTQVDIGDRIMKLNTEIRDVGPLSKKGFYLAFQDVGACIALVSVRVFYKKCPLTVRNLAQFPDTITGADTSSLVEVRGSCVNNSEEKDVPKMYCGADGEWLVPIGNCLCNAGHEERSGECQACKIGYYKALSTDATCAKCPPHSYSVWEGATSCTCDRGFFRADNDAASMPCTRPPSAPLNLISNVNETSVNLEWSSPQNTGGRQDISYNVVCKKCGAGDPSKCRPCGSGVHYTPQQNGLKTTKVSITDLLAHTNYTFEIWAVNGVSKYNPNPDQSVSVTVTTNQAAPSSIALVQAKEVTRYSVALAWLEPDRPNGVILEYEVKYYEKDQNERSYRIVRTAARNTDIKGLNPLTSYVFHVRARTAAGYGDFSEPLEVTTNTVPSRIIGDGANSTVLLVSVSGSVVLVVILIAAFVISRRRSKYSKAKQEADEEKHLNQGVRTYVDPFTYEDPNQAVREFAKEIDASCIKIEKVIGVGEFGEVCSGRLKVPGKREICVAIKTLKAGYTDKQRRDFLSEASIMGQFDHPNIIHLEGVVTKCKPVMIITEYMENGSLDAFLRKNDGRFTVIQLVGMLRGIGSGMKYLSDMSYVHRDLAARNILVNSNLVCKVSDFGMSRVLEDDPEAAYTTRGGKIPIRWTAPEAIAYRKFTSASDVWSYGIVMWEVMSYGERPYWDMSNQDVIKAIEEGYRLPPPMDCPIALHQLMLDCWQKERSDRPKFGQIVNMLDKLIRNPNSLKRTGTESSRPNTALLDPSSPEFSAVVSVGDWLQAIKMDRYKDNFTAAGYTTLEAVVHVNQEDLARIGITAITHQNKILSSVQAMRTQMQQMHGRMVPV
Sequence of JAK2 JH1 JH2 (human) (O60674 whole entry, looked up): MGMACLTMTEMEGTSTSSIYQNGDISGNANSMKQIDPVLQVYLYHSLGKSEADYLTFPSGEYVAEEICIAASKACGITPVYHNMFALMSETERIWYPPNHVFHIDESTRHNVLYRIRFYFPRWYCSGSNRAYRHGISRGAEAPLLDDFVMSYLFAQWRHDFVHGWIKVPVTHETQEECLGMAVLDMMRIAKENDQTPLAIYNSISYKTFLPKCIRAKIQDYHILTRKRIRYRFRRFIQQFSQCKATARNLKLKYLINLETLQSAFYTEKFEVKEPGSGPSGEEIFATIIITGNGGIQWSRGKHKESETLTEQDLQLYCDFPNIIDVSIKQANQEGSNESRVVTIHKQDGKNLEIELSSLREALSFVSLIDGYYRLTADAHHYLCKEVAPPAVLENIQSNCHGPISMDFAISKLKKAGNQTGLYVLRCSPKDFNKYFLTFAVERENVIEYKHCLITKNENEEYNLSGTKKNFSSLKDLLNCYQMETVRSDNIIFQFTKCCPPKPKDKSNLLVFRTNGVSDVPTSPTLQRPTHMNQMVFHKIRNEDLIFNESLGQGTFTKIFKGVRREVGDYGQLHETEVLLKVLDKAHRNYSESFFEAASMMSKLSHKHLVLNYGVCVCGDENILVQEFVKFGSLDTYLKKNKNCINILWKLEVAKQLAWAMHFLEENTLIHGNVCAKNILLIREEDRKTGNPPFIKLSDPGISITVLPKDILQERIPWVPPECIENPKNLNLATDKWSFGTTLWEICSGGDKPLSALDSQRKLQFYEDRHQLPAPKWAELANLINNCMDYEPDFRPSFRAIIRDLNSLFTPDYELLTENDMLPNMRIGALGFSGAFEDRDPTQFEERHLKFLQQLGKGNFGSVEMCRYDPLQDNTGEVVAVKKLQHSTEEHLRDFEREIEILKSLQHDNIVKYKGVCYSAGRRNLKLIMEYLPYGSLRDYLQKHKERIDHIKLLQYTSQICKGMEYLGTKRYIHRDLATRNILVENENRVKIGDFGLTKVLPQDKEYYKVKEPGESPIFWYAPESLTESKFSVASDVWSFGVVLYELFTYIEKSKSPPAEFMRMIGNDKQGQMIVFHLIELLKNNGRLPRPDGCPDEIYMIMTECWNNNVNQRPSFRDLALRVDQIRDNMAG
Sequence of BTK (human) (Q06187 whole entry, looked up): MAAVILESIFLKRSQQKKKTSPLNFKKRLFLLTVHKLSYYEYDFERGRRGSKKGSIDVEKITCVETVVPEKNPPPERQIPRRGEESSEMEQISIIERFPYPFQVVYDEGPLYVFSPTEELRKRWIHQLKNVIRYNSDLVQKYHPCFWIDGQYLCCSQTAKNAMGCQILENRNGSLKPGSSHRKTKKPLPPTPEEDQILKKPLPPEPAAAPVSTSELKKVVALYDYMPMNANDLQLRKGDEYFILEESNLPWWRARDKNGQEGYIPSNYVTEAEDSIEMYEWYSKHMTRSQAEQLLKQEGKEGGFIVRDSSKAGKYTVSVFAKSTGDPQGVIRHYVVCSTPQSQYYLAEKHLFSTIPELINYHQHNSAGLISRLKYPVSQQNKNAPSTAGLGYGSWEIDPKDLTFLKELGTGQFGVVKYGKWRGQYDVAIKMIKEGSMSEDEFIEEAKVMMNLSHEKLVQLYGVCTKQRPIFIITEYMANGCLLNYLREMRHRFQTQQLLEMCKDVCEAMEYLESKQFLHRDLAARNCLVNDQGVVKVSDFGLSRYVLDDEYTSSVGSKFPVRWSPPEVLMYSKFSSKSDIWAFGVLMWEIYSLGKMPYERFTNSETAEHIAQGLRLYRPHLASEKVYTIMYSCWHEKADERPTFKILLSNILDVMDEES
Sequence of ERBB4 (human) (Q15303 whole entry, looked up): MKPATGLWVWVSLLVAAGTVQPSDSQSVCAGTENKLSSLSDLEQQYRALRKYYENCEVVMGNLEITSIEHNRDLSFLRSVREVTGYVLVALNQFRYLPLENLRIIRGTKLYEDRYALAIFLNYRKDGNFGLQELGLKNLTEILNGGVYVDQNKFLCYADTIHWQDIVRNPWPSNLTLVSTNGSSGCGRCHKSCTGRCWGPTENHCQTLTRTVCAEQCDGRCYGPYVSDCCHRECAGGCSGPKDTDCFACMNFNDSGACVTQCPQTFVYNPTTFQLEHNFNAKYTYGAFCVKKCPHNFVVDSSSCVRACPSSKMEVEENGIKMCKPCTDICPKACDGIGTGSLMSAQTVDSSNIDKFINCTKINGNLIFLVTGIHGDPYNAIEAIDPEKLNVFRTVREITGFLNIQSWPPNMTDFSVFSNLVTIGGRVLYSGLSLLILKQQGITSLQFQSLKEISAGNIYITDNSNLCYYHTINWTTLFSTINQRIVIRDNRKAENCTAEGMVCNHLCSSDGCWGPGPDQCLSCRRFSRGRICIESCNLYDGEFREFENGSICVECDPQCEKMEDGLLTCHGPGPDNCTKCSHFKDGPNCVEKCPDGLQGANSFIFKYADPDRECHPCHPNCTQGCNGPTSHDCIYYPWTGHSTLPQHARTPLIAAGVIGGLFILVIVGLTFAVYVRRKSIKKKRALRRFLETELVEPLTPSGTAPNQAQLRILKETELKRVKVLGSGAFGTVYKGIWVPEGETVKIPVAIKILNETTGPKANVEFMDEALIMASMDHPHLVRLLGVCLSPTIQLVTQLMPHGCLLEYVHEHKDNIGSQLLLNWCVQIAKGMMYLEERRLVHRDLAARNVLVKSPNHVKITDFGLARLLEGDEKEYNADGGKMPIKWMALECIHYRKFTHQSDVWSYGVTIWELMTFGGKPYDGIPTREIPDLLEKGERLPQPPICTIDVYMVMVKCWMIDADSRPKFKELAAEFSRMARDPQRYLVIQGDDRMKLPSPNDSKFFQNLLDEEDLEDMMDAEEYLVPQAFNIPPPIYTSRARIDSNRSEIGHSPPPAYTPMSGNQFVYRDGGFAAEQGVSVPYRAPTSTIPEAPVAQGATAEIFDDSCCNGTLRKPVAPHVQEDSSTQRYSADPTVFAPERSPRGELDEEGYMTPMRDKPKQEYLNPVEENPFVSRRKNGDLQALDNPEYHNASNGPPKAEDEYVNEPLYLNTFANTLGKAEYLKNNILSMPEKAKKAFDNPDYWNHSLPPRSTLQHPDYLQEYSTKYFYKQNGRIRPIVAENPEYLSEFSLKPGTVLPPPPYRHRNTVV
Sequence of NEK6 (human) (Q9HC98 whole entry, looked up): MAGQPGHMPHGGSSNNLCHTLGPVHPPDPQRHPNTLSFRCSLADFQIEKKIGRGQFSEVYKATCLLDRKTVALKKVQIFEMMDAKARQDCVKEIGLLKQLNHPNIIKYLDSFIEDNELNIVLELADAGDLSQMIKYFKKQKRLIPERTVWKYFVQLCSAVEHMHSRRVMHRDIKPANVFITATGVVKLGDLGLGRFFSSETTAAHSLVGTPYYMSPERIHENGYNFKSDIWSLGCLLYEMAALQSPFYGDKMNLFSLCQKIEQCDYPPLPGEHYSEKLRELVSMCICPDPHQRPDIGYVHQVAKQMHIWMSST

N#Cc1c(C2CCNCC2)cc(-c2c(O)cccc2OCC2CC2)nc1N
residual activity ([1]; compound 1.0 µM): 71% | residual activity ([1]; compound 10.0 µM): 67% | residual activity ([2]; compound 1.0 µM): 101% | residual activity ([2]; compound 10.0 µM): 90% | residual activity ([3]; compound 1.0 µM): 129% | residual activity ([3]; compound 10.0 µM): 79% | residual activity ([4]; compound 1.0 µM): 107% | residual activity ([4]; compound 10.0 µM): 84% | residual activity ([5]; compound 1.0 µM): 89% | residual activity ([5]; compound 10.0 µM): 96% | residual activity ([6]; compound 1.0 µM): 117% | residual activity ([6]; compound 10.0 µM): 61% | residual activity ([7]; compound 1.0 µM): 99% | residual activity ([7]; compound 10.0 µM): 101% | residual activity ([8]; compound 1.0 µM): 107% | residual activity ([8]; compound 10.0 µM): 58% | residual activity ([9]; compound 1.0 µM): 59% | residual activity ([9]; compound 10.0 µM): 9% | residual activity ([10]; compound 1.0 µM): 51% | residual activity ([10]; compound 10.0 µM): 33% | residual activity ([11]; compound 1.0 µM): 117% | residual activity ([11]; compound 10.0 µM): 51% | residual activity ([12]; compound 1.0 µM): 115% | residual activity ([12]; compound 10.0 µM): 95% | residual activity ([13]; compound 1.0 µM): 113% | residual activity ([13]; compound 10.0 µM): 102% | residual activity ([14]; compound 1.0 µM): 80% | residual activity ([14]; compound 10.0 µM): 57% | residual activity ([15]; compound 1.0 µM): 83% | residual activity ([15]; compound 10.0 µM): 74% | residual activity ([16]; compound 1.0 µM): 27% | residual activity ([16]; compound 10.0 µM): 4% | residual activity ([17]; compound 1.0 µM): 83% | residual activity ([17]; compound 10.0 µM): 95% | residual activity ([18]; compound 1.0 µM): 84% | residual activity ([18]; compound 10.0 µM): 75% | residual activity ([19]; compound 1.0 µM): 53% | residual activity ([19]; compound 10.0 µM): 24% | residual activity ([20]; compound 1.0 µM): 91% | residual activity ([20]; compound 10.0 µM): 91% | residual activity ([21]; compound 1.0 µM): 117% | residual activity ([21]; compound 10.0 µM): 55% | residual activity ([22]; compound 1.0 µM): 66% | residual activity ([22]; compound 10.0 µM): 52% | residual activity ([23]; compound 1.0 µM): 85% | residual activity ([23]; compound 10.0 µM): 94% | residual activity ([24]; compound 1.0 µM): 106% | residual activity ([24]; compound 10.0 µM): 57% | residual activity ([25]; compound 1.0 µM): 92% | residual activity ([25]; compound 10.0 µM): 101% | residual activity ([26]; compound 1.0 µM): 105% | residual activity ([26]; compound 10.0 µM): 55% | residual activity ([27]; compound 1.0 µM): 82% | residual activity ([27]; compound 10.0 µM): 33% | residual activity ([28]; compound 1.0 µM): 99% | residual activity ([28]; compound 10.0 µM): 78% | residual activity ([29]; compound 1.0 µM): 119% | residual activity ([29]; compound 10.0 µM): 113% | residual activity ([30]; compound 1.0 µM): 32% | residual activity ([30]; compound 10.0 µM): 6% | residual activity ([31]; compound 1.0 µM): 88% | residual activity ([31]; compound 10.0 µM): 95% | residual activity ([32]; compound 1.0 µM): 85% | residual activity ([32]; compound 10.0 µM): 27% | residual activity ([33]; compound 1.0 µM): 77% | residual activity ([33]; compound 10.0 µM): 59% | residual activity ([34]; compound 1.0 µM): 122% | residual activity ([34]; compound 10.0 µM): 58% | residual activity ([35]; compound 1.0 µM): 85% | residual activity ([35]; compound 10.0 µM): 50%

Reference: the kinase profiling compilation of Christmann-Franck et al. (2016)
